“Also recorded” adds a separate entry of the source.
Experiments:
Format in all cases: in vivo, mouse
[1] = test system: C57 and BTBR mice; assay: Tail cuff blood pressure monitoring (CODA non-invasive system); settings: for toxicity (blood pressure) relative to racemic MDMA: IP
Experimental: The 8 chamber CODA™ Non-invasive blood pressure system was set up to monitor the blood pressure of C57 and BTBR mice. Mice were habituated to restraint, saline injection (IP), and tail-cuff pressure monitoring for at least three days before drug administration. Across days, groups of habituated mice were injected IP with increasing doses of test drug, in this case (R)-I, (S)-I and (R/S)-I, then returned to the home cage for 30 min. Tail cuff pressure monitoring then determined effects on systolic, diastolic, and mean arterial pressure in restrained C57 and BTBR mice in sessions lasting ˜30 min.
In the tail cuff pressure monitoring, an occlusion tail cuff was inflated to impede the blood flow to the tail. The cuff was deflated slowly, and a second tail cuff, incorporating the VPR sensor, measured the physiological characteristics of the returning blood flow. As the blood returned to the tail, the VPR sensor cuff measured the tail swelling resulting from arterial blood flow pulsations. Systolic blood pressure was automatically measured at the first appearance of tail swelling. Diastolic blood pressure was automatically measured when the increasing rate of swelling ceased in the tail.

[2] = test system: C57 and BTBR mice; assay: Conditioned place preference; settings: 1.0 mg/kg, x3 pairings, C57 mice
Experimental: The same 2-compartment chambers as described above in the social preference studies for conditioned place preference. For these studies, compartments are differentiated by floor texture (rough black plastic vs steel punch plate) and wall pattern (vertical vs. horizontal stripes.) An initial preference/habituation test was first run where mice were able to freely traverse the apparatus for 30 minutes. The following day, mice were assigned to receive saline in one compartment and drug in the other. Saline pairings occurred in the morning, drug pairings occurred in the afternoon, and were separated by at least 4 hours, during which time mice returned to their home cages. Three such pairings were performed, where mice were injected, returned to the home cage for a 15 min pretreatment period, then confined to the injection-appropriate compartment for 30 minutes. Half the subjects (within strain) received drug pairings on the plastic floor+vertical stripes side, and the other half received drug pairings on the punch plate floor+horizontal stripes side. […] The post-conditioning preference test was identical to the initial preference/habituation session, where mice were freely able to traverse the apparatus for 30 minutes. Time spent in each compartment was recorded, and expressed as a preference score for the drug paired side (calculated as time spent in that compartment during the post-test—time spent there during the pre-test.) All preference and conditioning sessions were conducted under the same low light conditions as in the social preference tests.

[3] = test system: C57 and BTBR mice; assay: Social preference procedure: novelty preference test; settings: 1 mg/kg IP
Experimental: All drugs were dissolved in physiological 0.9% saline and administered at a constant volume of 1 ml/100 g body weight. Because all drugs utilized in these studies were synthesized as hydrochloride (HCl) salts, they were weighed as salts prior to the preparation of all solutions. All drugs at all concentrations are readily dissolved in an aqueous solution at normal pH. Injections of all drugs were administered intraperitoneally (IP) to mimic pharmacokinetic parameters typical of oral administration, without the behaviour-impairing effects of gavage stress.
This assay was conducted in adult male C57 and BTBR mice (n=6 per group) in a dedicated conditioning room where ambient light, sound, and human contact were tightly controlled.
Social preference chambers consisted of two polycarbonate boxes (13.5 cm wide×22.5 cm tall×31.0 cm deep), floored with rough-textured black ABS plastic, and connected to one another by a 1.25″ PVC T-junction. An infrared photobeam emitter/detector array was mounted at each intersection of the T-junction and each preference compartment, and as a mouse traversed the apparatus, it would break the photobeam upon entry to or exit from each preference compartment. Beam breaks started or stopped a counter on an interfaced computer, allowing automated collection of time spent in each compartment. At the end of each test, data were reported as time (in seconds) spent in each compartment, the number of entries into each compartment, and the average time spent in each compartment following an entry. Social preference tests were conducted in an iterative manner, with each test subject completing four distinct phases as described below. Between testing sessions, chambers were sanitized by wiping the insides with a disinfectant product provided by the UAMS Department of Laboratory Animal Medicine. At the end of the week (upon completion of all phases of the procedure), each apparatus was disassembled and all parts were sanitized. No food or water were available during social preference sessions, but were available in the home cage immediately afterwards. […]

[4] = test system: C57 and BTBR mice; assay: Compartment entries during social novelty test (proxy for locomotor stimulant effects); settings: for total entries during social novelty test: relative to saline; for compartment entries during social novelty test, change of stimulation with dose: various doses
From the text: Social preference chambers consisted of two polycarbonate boxes (13.5 cm wide×22.5 cm tall×31.0 cm deep), floored with rough-textured black ABS plastic, and connected to one another by a 1.25″ PVC T-junction. An infrared photobeam emitter/detector array was mounted at each intersection of the T-junction and each preference compartment, and as a mouse traversed the apparatus, it would break the photobeam upon entry to or exit from each preference compartment. Beam breaks started or stopped a counter on an interfaced computer, allowing automated collection of time spent in each compartment. At the end of each test, data were reported as time (in seconds) spent in each compartment, the number of entries into each compartment, and the average time spent in each compartment following an entry. Social preference tests were conducted in an iterative manner, with each test subject completing four distinct phases as described below. Between testing sessions, chambers were sanitized by wiping the insides with a disinfectant product provided by the UAMS Department of Laboratory Animal Medicine. At the end of the week (upon completion of all phases of the procedure), each apparatus was disassembled and all parts were sanitized. No food or water were available during social preference sessions, but were available in the home cage immediately afterwards.
Quantifying total entries into the preference compartments provides a proxy measurement for locomotor stimulant effects of the various doses of the various test drugs. This establishes a limit to the drug doses that can be tested in the social preference procedure, as induction of locomotor stimulant effects confounds preference assessments (because mice stop attending to the social stimuli in each compartment and instead spend their time engaged in locomotor behavior.) Motor activity varies across the distinct phases of social preference testing, in part because the habituation session is twice as long (30 minutes) as the novelty, sociability, and social novelty tests (15 minutes each), but also because mice emit high levels of exploratory behavior in novel environments. Thus, as familiarity with the test apparatus increases over successive exposures to the chambers, the number of entries decreases.
(Note that entries were collected for every test, but drug effects on entries during earlier phases may be less reliable due to the confounding influence of changing familiarity with the apparatus across phases.)

Row | SMILES | cardiovascular effects (systolic, diastolic, mean arterial pressure) ([1]; 10 mg/kg and 30 mg/kg IP, C57 and BTBR mice) | toxicity (blood pressure) relative to racemic MDMA [1] | blood pressure rise relative to racemic MDMA and S-methamphetamine ([1]; both strains) | place conditioning (place preference) [2] | effect on novelty preference (time spent with dummy mouse) [3] | total entries during social novelty test ([4]; 1 mg/kg, C57 mice) | systolic and diastolic blood pressure ([1]; 10 mg/kg i.p.) | compartment entries during social novelty test (stimulation) ([4]; 1 mg/kg, BTBR mice, compared to (R)-I, racemic MDMA and saline) | compartment entries during social novelty test, change of stimulation with dose ([4]; BTBR mice) | compartment entries during social novelty test, change of stimulation with dose ([4]; C57 mice)
1 | c1cc2c(cc1C[C@H]1CCCN1)OCO2 [(R)-I, (R)-2-[(2H-1,3-benzodioxol-5-yl)methyl]pyrrolidine] | lower impact on cardiovascular effects than (S)-I | significantly less toxic | significantly lower | neither 1.0 mg/kg (R)-I nor 1.0 mg/kg (S)-I elicited significant place preferences; also recorded: negligible effects | no systematic effects | only slightly increased | – | – | – | –
2 | c1cc2c(cc1C[C@@H]1CCCN1)OCO2 [(S)-I, (S)-2-[(2H-1,3-benzodioxol-5-yl)methyl]pyrrolidine] | – | significantly less toxic | – | neither 1.0 mg/kg (R)-I nor 1.0 mg/kg (S)-I elicited significant place preferences; also recorded: negligible effects | no systematic effects | only slightly increased | higher systolic and diastolic blood pressure than (R)-I | substantially stimulated | increase with increasing dose | reverses

From patent publication US12042478B2, “(R)-2-[(2H-1,3-benzodioxol-5-yl)methyl]pyrrolidine and processes for preparation, compositions and uses thereof” (Pharmala Biotech Inc., priority 2022, dated 2024)
